Assay results: PubChem BioAssay AID248 (DTP/NCI, 2004)
Toxic doses and inconclusive results are not listed. Cut-off read from the data, not from the text of the source: active = T/C of 150% or more; inactive = T/C below 125%.

Tested on: L1210 leukemia ip in BDF1 mice, survival T/C
Experiment: NCI In Vivo Anticancer Drug Screen. Data for tumor model L1210 Leukemia (intraperitoneal) in B6D2F1 (BDF1) mice
Settings: endpoint: mean survival time, higher = longer survival
How it was run: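 Read-out is survival time, reported as the treated-group measurement over the vehicle-control measurement.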

[1] = dose: 50.0 mg/kg/injection, schedule: Q01DX009 (ip), vehicle: Klucel (hydroxypropylcellulose) (HPC)
[2] = dose: 50.0 mg/kg/injection, schedule: Q04DX003 (ip), vehicle: Klucel (hydroxypropylcellulose) (HPC)
[3] = dose: 100.0 mg/kg/injection, schedule: Q01DX009 (ip), vehicle: Klucel (hydroxypropylcellulose) (HPC)
[4] = dose: 100.0 mg/kg/injection, schedule: Q04DX003 (ip), vehicle: Klucel (hydroxypropylcellulose) (HPC)
[5] = dose: 200.0 mg/kg/injection, schedule: Q01DX009 (ip), vehicle: Klucel (hydroxypropylcellulose) (HPC)
[6] = dose: 200.0 mg/kg/injection, schedule: Q04DX003 (ip), vehicle: Klucel (hydroxypropylcellulose) (HPC)
[7] = dose: 100.0 mg/kg/injection, schedule: Q01DX001 (ip), vehicle: carboxymethylcellulose (CMC)
[8] = dose: 200.0 mg/kg/injection, schedule: Q01DX001 (ip), vehicle: carboxymethylcellulose (CMC)
[9] = dose: 400.0 mg/kg/injection, schedule: Q01DX001 (ip), vehicle: carboxymethylcellulose (CMC)
[10] = dose: 100.0 mg/kg/injection, schedule: Q04DX003 (ip), vehicle: saline with Tween-80
[11] = dose: 200.0 mg/kg/injection, schedule: Q04DX003 (ip), vehicle: saline with Tween-80
[12] = dose: 400.0 mg/kg/injection, schedule: Q04DX003 (ip), vehicle: saline with Tween-80
[13] = dose: 50.0 mg/kg/injection, schedule: Q01DX001 (ip), vehicle: carboxymethylcellulose (CMC)

Measured: T/C

NNC(=O)c1c[nH]c2ccccc2c1=O
inactive: dose: 12.5 mg/kg/injection, schedule: Q01DX009 (ip), vehicle: Klucel (hydroxypropylcellulose) (HPC) 95 % of control | dose: 25.0 mg/kg/injection, schedule: Q01DX009 (ip), vehicle: Klucel (hydroxypropylcellulose) (HPC) 90 % of control | [1] 94 % of control

Cc1ccc(NC(=O)Nc2cc(S(=O)(=O)O)ccc2Oc2ccccc2Cl)cc1
inactive: dose: 100.0 mg/kg/injection, schedule: Q01DX009 (ip), vehicle: saline sonified 95 % of control | dose: 200.0 mg/kg/injection, schedule: Q01DX009 (ip), vehicle: saline sonified 103 % of control

CC(C)NC1(C(N)=O)CCN(Cc2ccccc2)CC1
inactive: [1] 95 % of control | [2] 98 % of control | [3] 100 % of control | [4] 93 % of control | [5] 104 % of control | [6] 95 % of control

Cn1c(=O)c2c(ncn2CCOC(=O)C(C)(C)Oc2ccc(Cl)cc2)n(C)c1=O
inactive: [3] 92 % of control | [4] 90 % of control | [5] 105 % of control | [6] 96 % of control | dose: 400.0 mg/kg/injection, schedule: Q04DX003 (ip), vehicle: Klucel (hydroxypropylcellulose) (HPC) 93 % of control

Nn1c(=S)[nH]n2cnnc12
inactive: [7] 98 % of control | [8] 106 % of control | [9] 95 % of control

COc1cc(OC)c(C(=O)CCl)c(O)c1Cl
inactive: [10] 99 % of control | [11] 104 % of control | [12] 92 % of control

O=C(COc1ccc(Cl)cc1Cl)Nc1ccc(-c2ccc(NC(=O)COc3ccc(Cl)cc3Cl)cc2)cc1
inactive: dose: 50.0 mg/kg/injection, schedule: Q04DX002 (ip), vehicle: Klucel (hydroxypropylcellulose) (HPC) 89 % of control | dose: 100.0 mg/kg/injection, schedule: Q04DX002 (ip), vehicle: Klucel (hydroxypropylcellulose) (HPC) 89 % of control | dose: 200.0 mg/kg/injection, schedule: Q04DX002 (ip), vehicle: Klucel (hydroxypropylcellulose) (HPC) 100 % of control

CC(C)(C)c1cc(C#N)cc(C(C)(C)C)c1O
inactive: [1] 96 % of control | [3] 103 % of control | [5] 96 % of control

COc1ccc(-c2coc3cc(O)ccc3c2=O)cc1
inactive: [10] 96 % of control | [11] 96 % of control | [12] 96 % of control

Brc1ccc(N=C2NN=CC2(c2ccccc2)c2ccccc2)cc1
inactive: [7] 94 % of control | [8] 88 % of control | [9] 88 % of control

Cc1cc(N(CCOS(C)(=O)=O)CCOS(C)(=O)=O)ccc1C=Nc1cc(Cl)c(O)c(Cl)c1
inactive: dose: 20.0 mg/kg/injection, schedule: Q04DX003 (ip), vehicle: Klucel (hydroxypropylcellulose) (HPC) 121 % of control | dose: 40.0 mg/kg/injection, schedule: Q04DX003 (ip), vehicle: Klucel (hydroxypropylcellulose) (HPC) 118 % of control | dose: 80.0 mg/kg/injection, schedule: Q04DX003 (ip), vehicle: Klucel (hydroxypropylcellulose) (HPC) 100 % of control

c1ccc(C2CO2)cc1 (configuration not stated)
inactive: dose: 25.0 mg/kg/injection, schedule: Q04DX003 (ip), vehicle: Klucel (hydroxypropylcellulose) (HPC) 97 % of control | [13] 95 % of control | [2] 90 % of control | [7] 101 % of control | [4] 98 % of control | [8] 97 % of control | [9] 97 % of control

Nc1cc(F)c2c(c1)C(=O)c1cc(F)ccc1-2
inactive: [13] 93 % of control | [2] 96 % of control | [7] 95 % of control | [4] 96 % of control | [8] 95 % of control | [6] 98 % of control | [9] 95 % of control

C[n+]1cccc(C=O)c1
inactive: dose: 100.0 mg/kg/injection, schedule: Q01DX009 (ip), vehicle: saline 100 % of control | dose: 200.0 mg/kg/injection, schedule: Q01DX009 (ip), vehicle: saline 101 % of control | dose: 400.0 mg/kg/injection, schedule: Q01DX009 (ip), vehicle: saline 100 % of control

CC12CCC3C(CCC4=CC(=O)C(C(O)(C(F)(F)F)C(F)(F)F)CC43C)C1CC(C(O)(C(F)(F)F)C(F)(F)F)C2=O (configuration not stated)
inactive: dose: 100.0 mg/kg/injection, schedule: Q01DX001 (sc), vehicle: steriod suspending solution 97 % of control | dose: 200.0 mg/kg/injection, schedule: Q01DX001 (sc), vehicle: steriod suspending solution 103 % of control | dose: 400.0 mg/kg/injection, schedule: Q01DX001 (sc), vehicle: steriod suspending solution 101 % of control
